According to paper PMC12392035, “Development of Carborane-Based Benzothiazole Analogues as Cannabinoid Receptor Type 2 (CB2R) Ligands” (ACS Omega, 2025):

Experiments:
[1] = molecular target: T1, human CB2R (cannabinoid receptor type 2) (Homo sapiens, UniProt P34972); assay: competitive radioligand binding, CHO membranes; settings: [3H]WIN55212-2 displacement; mean of two values; read-out: KiCB2R (nM) mean ^a
T1 construct: gene CNR2; stably transfected in CHO cells; crude membrane homogenates
Source text: competitive radioligand binding, CHO membranes on human CB2R (cannabinoid receptor type 2)

[2] = molecular target: T2, human CB1R (cannabinoid receptor type 1) (Homo sapiens, UniProt P21554); assay: competitive radioligand binding, CHO membranes; settings: [3H]SR141716A displacement; mean of two values; read-out: KiCB1R (nM) mean ^a
T2 construct: gene CNR1; stably transfected in CHO cells; crude membrane homogenates
Source text: competitive radioligand binding, CHO membranes on human CB1R (cannabinoid receptor type 1)

T2 sequence (P21554 whole entry): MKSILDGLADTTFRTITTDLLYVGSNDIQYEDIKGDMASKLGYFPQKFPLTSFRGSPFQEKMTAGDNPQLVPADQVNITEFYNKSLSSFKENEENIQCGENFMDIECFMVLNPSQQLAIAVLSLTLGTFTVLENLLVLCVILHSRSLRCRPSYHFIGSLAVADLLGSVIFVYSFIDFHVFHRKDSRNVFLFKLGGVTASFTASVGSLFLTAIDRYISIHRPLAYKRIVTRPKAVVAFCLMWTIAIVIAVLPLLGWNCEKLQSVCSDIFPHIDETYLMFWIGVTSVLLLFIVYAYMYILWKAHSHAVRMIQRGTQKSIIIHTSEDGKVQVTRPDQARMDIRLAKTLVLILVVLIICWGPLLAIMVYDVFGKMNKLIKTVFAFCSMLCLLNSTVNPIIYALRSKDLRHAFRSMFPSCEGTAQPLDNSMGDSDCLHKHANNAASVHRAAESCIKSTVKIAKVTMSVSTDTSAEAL
T1 sequence (P34972 whole entry): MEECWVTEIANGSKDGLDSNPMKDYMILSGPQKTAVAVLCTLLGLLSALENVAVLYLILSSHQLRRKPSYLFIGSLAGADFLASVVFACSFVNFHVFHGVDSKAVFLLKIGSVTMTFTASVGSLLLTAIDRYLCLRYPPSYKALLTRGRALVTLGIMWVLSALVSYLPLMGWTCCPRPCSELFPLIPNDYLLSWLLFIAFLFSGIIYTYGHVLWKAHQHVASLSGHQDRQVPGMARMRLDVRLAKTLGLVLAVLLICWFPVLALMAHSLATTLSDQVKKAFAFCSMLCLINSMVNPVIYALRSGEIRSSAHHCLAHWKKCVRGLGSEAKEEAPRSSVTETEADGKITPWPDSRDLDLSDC

Work on “(Z)-N-(6-Methoxy-3-(2-methoxyethyl)-benzo[d]-thiazol-2(3H)-ylidene)(1,2-closo-dicarba-dodecaborane)-carboxamide [2o]” yielded a Ki [1] of 7.37 nM and a Ki [2] of 76800 nM.
“(Z)-N-(6-Methoxy-3-(2-methoxyethyl)-benzo[d]-thiazol-2(3H)-ylidene)(1,7-closo-dicarba-dodecaborane)-carboxamide [2m]” showed a Ki [1] of 2.47 nM and a Ki [2] of 42300 nM.
“(Z)-N-(6-Methoxy-3-(2-methoxyethyl)-benzo[d]-thiazol-2(3H)-ylidene)(1,12-closo-dicarba-dodecaborane)-carboxamide [2p]” gave a Ki [1] of 3.17 nM and a Ki [2] of 8670 nM.
